Activity calls are given as the source filed them. The calls are words filed in the database; no cut-off is given here. Some results are limits rather than exact numbers.

What is called IC50 is the concentration at which inhibition is half-maximal. What is called inhibition is the relative decrease from the control value, in per cent. In general, GI50 refers to the concentration giving 50% growth inhibition.

Series [1] has as its system MDA-MB-231. The experiment in a line: Antiproliferative activity against human MDA-MB-231 cells assessed as inhibition of cell proliferation incubated for 72 hrs by MTT assay. The settings on record: MDA-MB-231, 72 h. Type of series: functional, cell-based.
Series [2] concerns MCF7. The experiment in a line: cells. The settings on record: Homo sapiens, MCF7, 72 h.
Description: Antiproliferative activity against human MCF7 cells assessed as inhibition of cell proliferation incubated for 72 hrs by MTT assay
Series [3] has as its system SEM cells. The experiment in a line: Antiproliferative activity against human SEM cells assessed as inhibition of cell proliferation incubated for 72 hrs by MTT assay. The class given is functional, cell-based. A general note: Tetrazolium dyes change colour on reduction, which living cells bring about.
In series [4] the target is T1, Tubulin (Bos taurus) (UniProt Q6B856+Q862L2+Q862F3). The experiment in a line: Displacement of [3H]-colchicine from bovine brain tubulin at 5 uM incubated for 1 hr by relative to control. A general note: Displacement assays read how much labelled ligand stays bound in the presence of the test substance.
Series [5] deals with HeLa. Kind of series: cells. The settings on record: Homo sapiens, 72 h.
Description: Antiproliferative activity against human HeLa cells assessed as inhibition of cell proliferation incubated for 72 hrs by MTT assay
The target in series [6] is Tubulin (Bos taurus, UniProt Q6B856+Q862L2+Q862F3). The experiment in a line: Inhibition of bovine brain tubulin assembly using GTP as substrate incubated for 20 mins by spectrophotometric method.
Series [7] deals with HL-60. Kind of series: Antiproliferative activity against human HL60 cells assessed as inhibition of cell proliferation incubated for 72 hrs by MTT assay. The settings on record: HL-60, 72 h. The class given is functional, cell-based.
Series [8] relates to HT-29. The experiment in a line: cells. The settings on record: Homo sapiens, HT-29, 72 h.
Description: Antiproliferative activity against human HT-29 cells assessed as inhibition of cell proliferation incubated for 72 hrs by MTT assay
For series [9], the target named is T1, Tubulin (Bos taurus). Kind of series: Displacement of [3H]-colchicine from bovine brain tubulin at 0.5 uM incubated for 1 hr by relative to control.
For series [10], the system named is MDA-MB-231. Kind of series: Induction of mitochondrial membrane depolarization in human MDA-MB-231 cells at 50 to 100 nM incubated for 24 to 48 hrs by JC1 staining based flow cytometric method. Type of series: functional, cell-based.
A short description of series [11]: Cytotoxicity against human quiescent PBL assessed as reduction in cell viability incubated for 72 hrs by MTT assay. The class given is cell-based.
Series [12] is described as follows: Antiproliferative activity against human CEM/VBL100 cells overexpressing P-gp assessed as inhibition of cell growth incubated for 72 hrs by MTT assay. Type of series: functional. As to conditions: CEM/VBL100, 72 h.
The subject of series [13] is MDA-MB-231. The experiment in a line: Induction of cell cycle arrest in human MDA-MB-231 cells assessed as increase in accumulation of cells at G2/M phase at 10 nM incubated for 24 hrs by PI staining based flow cytometric analysis relative to control. Type of series: functional.
The test system of series [14] is E0771. Kind of series: Antitumour activity against mouse E0771 cells allografted in ip dosed C57BL/6 mouse assessed as reduction in tumor burden administrated every other day by caliper method. The class given is functional, organism-based.
The subject of series [15] is E0771. Kind of series: Antitumour activity against mouse E0771 cells allografted in C57BL/6 mouse assessed as reduction in tumor mass at 5.0 to 15 mg/kg, ip administrated for every other day by caliper method. The class given is functional, organism-based.
Series [16] has as its system MDA-MB-231. The experiment in a line: Induction of cell cycle arrest in human MDA-MB-231 cells assessed as reduction in accumulation of cells at G1 phase at 10 to 100 nM incubated for 24 hrs by PI staining based flow cytometric analysis. Type of series: functional.
For series [17], the system named is MDA-MB-231. The experiment in a line: Inhibition of cell migration in human MDA-MB-231 cells at 5 nM incubated for 24 to 48 hrs by wound healing assay. The class given is functional, cell-based.
Series [18] deals with MDA-MB-231. Kind of series: Induction of cell cycle arrest in human MDA-MB-231 cells assessed as increase in p21 protein expression level at 50 to 100 nM incubated for 24 to 48 hrs by western blot analysis. The class given is functional, cell-based. (In western blotting, separated proteins are transferred to a membrane and probed.)
Series [19] deals with MDA-MB-231. Kind of series: Induction of apoptosis in human MDA-MB-231 cells assessed as reduction in XIAP protein expression at 50 to 100 nM incubated for 24 to 48 hrs by Western blot analysis. Type of series: functional, cell-based.
In series [20] the test system is MDA-MB-231. Kind of series: Induction of apoptosis in human MDA-MB-231 cells at 50 nM incubated for 24 to 48 hrs by annexin V-FITC/propidium iodide staining-based flow cytometry analysis. Type of series: functional, cell-based.
The test system of series [21] is MDA-MB-231. The experiment in a line: Induction of apoptosis in human MDA-MB-231 cells assessed as activation of PARP cleavage at 50 to 100 nM incubated for 48 hrs by Western blot analysis. Type of series: functional, cell-based.
Series [22] relates to MDA-MB-231. The experiment in a line: Induction of cell cycle arrest in human MDA-MB-231 cells assessed as reduction in cdc2 dephosphorylation level at 50 to 100 nM incubated for 24 to 48 hrs by western blot analysis.
The test system of series [23] is E0771. The experiment in a line: Antitumour activity against mouse E0771 cells allografted in C57BL/6 mouse assessed as reduction in tumor burden at 5.0 mg/kg, ip administrated every other day by caliper method. Type of series: functional, organism-based.
Series [24] deals with MDA-MB-231. Kind of series: Induction of cell cycle arrest in human MDA-MB-231 cells assessed as reduction in accumulation of cells at S phase at 10 to 100 nM incubated for 24 hrs by PI staining based flow cytometric analysis. The class given is functional.
Series [25] can be described thus: Toxicity in C57BL/6 mouse allografted with mouse E0771 cells assessed as change in body weight at 15 mg/kg, ip administered every other day. Type of series: organism-based. As to conditions: in vivo.
The nature of series [26]: Cytotoxicity against PHA-stimulated human PBL assessed as reduction in cell viability incubated for 72 hrs by MTT assay. Type of series: cell-based.
Series [27] relates to MDA-MB-231. Kind of series: Induction of apoptosis in human MDA-MB-231 cells assessed as reduction in Mcl1 protein expression at 50 nM incubated for 24 hrs by Western blot analysis. The class given is functional, cell-based.
Series [28] concerns MDA-MB-231. Kind of series: Induction of ROS generation in human MDA-MB-231 cells at 50 to 100 nM incubated for 24 to 48 hrs by H2-DCFDA staining based flow cytometric method. The class given is functional, cell-based.
The subject of series [29] is MDA-MB-231. Kind of series: Induction of cell cycle arrest in human MDA-MB-231 cells assessed as effect on cyclin B protein expression at 50 to 100 nM incubated for 24 to 48 hrs by western blot analysis. The class given is functional, cell-based.
Series [30] has as its system MDA-MB-231. Kind of series: Induction of cell cycle arrest in human MDA-MB-231 cells assessed as reduction in cdc25c protein expression at 50 nM incubated for 24 to 48 hrs by western blot analysis. The class given is functional, cell-based.
For series [31], the system named is CCRF-CEM. Kind of series: Antiproliferative activity against human CEM cells assessed as inhibition of cell growth incubated for 72 hrs by MTT assay. The class given is functional.
Series [32] in a line: Cytotoxicity against human astrocytes assessed as reduction in cell viability incubated for 72 hrs by MTT assay. The class given is cell-based, Astrocyte.
The test system of series [33] is MDA-MB-231. The experiment in a line: Induction of cell cycle arrest in human MDA-MB-231 cells assessed as increase in accumulation of cells at G2/M phase at 100 nM incubated for 24 hrs by PI staining based flow cytometric analysis. Type of series: functional.
For series [34], the system named is MDA-MB-231. Kind of series: Induction of apoptosis in human MDA-MB-231 cells assessed as reduction in Mcl1 protein expression at 50 to 100 nM incubated for 48 hrs by Western blot analysis. Type of series: functional, cell-based.

Regarding `COc1ccc(-c2n[nH]cc2-c2cc(OC)c(OC)c(OC)c2)cc1`, the half-maximal inhibitory concentration (IC50) in series [1] came out at 0.9 nM; in [2] it was 2.6 nM; in series [3] it was 0.4 nM; in [5] it was 1.9 nM; in series [6], 340 nM; in series [7] it was 2.1 nM. Besides, the half-maximal inhibitory concentration (IC50) in series [8] came to 0.8 nM. The inhibition in [4] worked out at 93%; in [9] it was 79%.
For the molecule `COc1cc(-c2n[nH]cc2-c2ccc(C)c(F)c2)cc(OC)c1OC`, the IC50 in series [1] amounted to 481 nM; in [2] it was 1700 nM; in series [3] it was 23.5 nM; in [5] it was 26.2 nM; in series [6], 480 nM; in series [7], 31 nM. For the same molecule, the half-inhibitory concentration (IC50) in series [8] amounted to 67.4 nM. In addition, the inhibition turned out to be 91% in series [4] and 49% in series [9].
`CCOc1ccc(-c2n[nH]cc2-c2cc(OC)c(OC)c(OC)c2)cc1`: the result in [10], in [16], in series [18], in series [19], in [20] and in [21] was Active. In addition, the outcome in [22], in series [24], in series [27], in series [28] and in series [30] was Active. The IC50 was 0.7 nM in series [1]; 0.21 nM in series [2]; 0.06 nM in series [3]; 0.07 nM in series [5]; 350 nM in series [6]; 0.25 nM in [7]. The IC50 in series [8] amounted to 0.06 nM. The concentration for 50% growth inhibition (GI50) at 72 h in series [11], in [26] and in [32] was over 10000 nM throughout. The GI50 in series [12] was found to be 0.52 nM; in [31], 0.35 nM. For the same molecule, the Activity is listed as 60% in [13] and “Non-Toxic” in series [25]. The inhibition entry is “Dose-dependent effect” in series [14], 96% in series [4] and 90% in series [9]. In addition, the inhibition result in [15], in series [17] and in series [23] was “Active” throughout. Also, in series [29], the outcome was inactive.
Take `COc1cc(-c2n[nH]cc2-c2ccc(C)c(C)c2)cc(OC)c1OC`: the IC50 in [1] amounted to 2610 nM; in series [2], 769 nM; in series [3] it was 28.5 nM; in series [5], 35.9 nM; in series [6] it was 610 nM; in series [7], 51.3 nM. The midpoint of inhibition in series [8], the IC50, lay at 68.4 nM. In [4], this molecule returned an inhibition of 85%.
As to `COc1cc(-c2c[nH]nc2-c2ccc(C)cc2)cc(OC)c1OC`, the 50% inhibitory concentration (IC50) in [1] amounted to 262 nM; in [2], 700 nM; in series [3] it was 14.7 nM; in series [5], 25.2 nM; in series [6], 570 nM; in [7], 31.4 nM. For the same molecule, in [8], the IC50 was found to be 44.4 nM. In [4], the inhibition worked out at 86%.
`CCOc1ccc(-c2c[nH]nc2-c2cc(OC)c(OC)c(OC)c2)cc1`: the outcome in series [10], in series [33], in series [16], in [34], in [18] and in [19] was Active. In addition, the result in [20], in [21], in series [24] and in [28] was Active. Besides, the half-inhibitory concentration (IC50) in series [1] is 4.5 nM; in series [2], 1.5 nM; in series [3], 0.2 nM; in series [5], 0.05 nM; in [6], 360 nM; in series [7], 3.2 nM. The same molecule registered an IC50 in series [8] of 0.3 nM. Further, the GI50 at 72 h is 8700 nM in series [11], over 10000 nM in [26] and over 10000 nM in series [32]. Further, the concentration for 50% growth inhibition (GI50) in series [12] is 1.9 nM; in series [31], 0.4 nM. In addition, the inhibition turned out to be 95% in series [4] and 69% in series [9]. In addition, the result in series [29] was inactive.
